ChEMBL document CHEMBL5725854, “Inhibitors of protein methyltransferase DOT1L and methods of use thereof” (2018)

Target: Histone-lysine N-methyltransferase, H3 lysine-79 specific (Homo sapiens) (UniProt Q8TEK3)
Sequence (Q8TEK3 whole entry, looked up): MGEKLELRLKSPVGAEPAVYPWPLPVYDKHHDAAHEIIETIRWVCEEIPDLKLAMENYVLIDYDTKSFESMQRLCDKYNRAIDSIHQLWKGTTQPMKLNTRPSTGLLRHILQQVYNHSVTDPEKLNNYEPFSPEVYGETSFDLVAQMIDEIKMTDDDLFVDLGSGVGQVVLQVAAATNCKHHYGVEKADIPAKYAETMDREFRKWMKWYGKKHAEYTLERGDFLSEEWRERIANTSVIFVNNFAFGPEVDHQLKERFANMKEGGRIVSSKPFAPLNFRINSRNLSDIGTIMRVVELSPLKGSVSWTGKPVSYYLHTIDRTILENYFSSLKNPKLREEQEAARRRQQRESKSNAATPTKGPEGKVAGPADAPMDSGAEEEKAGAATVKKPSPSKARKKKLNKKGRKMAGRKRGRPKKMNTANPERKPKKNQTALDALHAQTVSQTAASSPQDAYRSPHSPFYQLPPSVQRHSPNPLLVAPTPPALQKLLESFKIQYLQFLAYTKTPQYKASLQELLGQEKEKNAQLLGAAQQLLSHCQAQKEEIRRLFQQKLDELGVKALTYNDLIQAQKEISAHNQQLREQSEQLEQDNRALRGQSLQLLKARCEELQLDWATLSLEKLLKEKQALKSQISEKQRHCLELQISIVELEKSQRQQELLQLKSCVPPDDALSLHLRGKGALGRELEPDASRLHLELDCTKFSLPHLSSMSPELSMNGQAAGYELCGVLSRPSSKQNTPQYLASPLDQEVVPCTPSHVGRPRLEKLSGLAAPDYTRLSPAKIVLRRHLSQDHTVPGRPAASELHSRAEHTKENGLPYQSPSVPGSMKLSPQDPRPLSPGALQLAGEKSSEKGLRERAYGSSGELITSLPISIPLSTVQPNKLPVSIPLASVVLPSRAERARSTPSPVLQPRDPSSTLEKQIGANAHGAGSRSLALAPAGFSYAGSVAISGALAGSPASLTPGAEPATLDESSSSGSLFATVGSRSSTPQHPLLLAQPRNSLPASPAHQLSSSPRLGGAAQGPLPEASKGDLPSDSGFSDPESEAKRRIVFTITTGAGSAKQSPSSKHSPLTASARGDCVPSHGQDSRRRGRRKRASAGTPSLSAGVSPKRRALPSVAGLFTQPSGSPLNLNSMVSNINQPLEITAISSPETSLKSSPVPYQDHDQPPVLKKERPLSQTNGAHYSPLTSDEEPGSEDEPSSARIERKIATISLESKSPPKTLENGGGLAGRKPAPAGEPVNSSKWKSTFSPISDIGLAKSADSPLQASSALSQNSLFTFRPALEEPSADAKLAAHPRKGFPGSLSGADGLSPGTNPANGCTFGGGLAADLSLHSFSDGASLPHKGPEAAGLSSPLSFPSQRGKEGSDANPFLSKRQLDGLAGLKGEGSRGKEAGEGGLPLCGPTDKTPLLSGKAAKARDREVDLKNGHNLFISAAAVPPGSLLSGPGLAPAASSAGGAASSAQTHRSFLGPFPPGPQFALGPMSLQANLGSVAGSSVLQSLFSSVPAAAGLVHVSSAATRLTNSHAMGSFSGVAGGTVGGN

## Nc1ncnc2c1ncn2[C@@H]1O[C@H](CSCC[C@H](N)OC=O)[C@@H](O)[C@H]1O
  k off: 0.1 s⁻¹
